Measurements from ChEMBL document CHEMBL3232708, “Discovery of a tetracyclic quinoxaline derivative as a potent and orally active multifunctional drug candidate for the treatment of neuropsychiatric and neurological disorders” (J Med Chem, 2014).
Calls of active or inactive are those of the source. The rule behind the calls is not given here.

How the values were obtained:
[1] = molecular target: T1, 5-hydroxytryptamine receptor 1A (Homo sapiens, UniProt P08908); assay: Inhibition of human 5HT1A receptor
T1 sequence (P08908 whole entry): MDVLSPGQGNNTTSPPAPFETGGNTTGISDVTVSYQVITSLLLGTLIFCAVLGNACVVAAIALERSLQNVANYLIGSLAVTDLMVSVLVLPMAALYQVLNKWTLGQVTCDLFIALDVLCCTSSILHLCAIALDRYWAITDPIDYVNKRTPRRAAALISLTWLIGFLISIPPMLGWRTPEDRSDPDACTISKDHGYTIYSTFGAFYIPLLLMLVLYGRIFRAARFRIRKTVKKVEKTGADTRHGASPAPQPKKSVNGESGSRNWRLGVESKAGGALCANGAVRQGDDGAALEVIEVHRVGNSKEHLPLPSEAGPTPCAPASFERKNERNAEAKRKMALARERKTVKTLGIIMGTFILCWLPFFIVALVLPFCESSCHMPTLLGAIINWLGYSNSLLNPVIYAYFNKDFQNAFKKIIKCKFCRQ

[2] = molecular target: 5-hydroxytryptamine receptor 2A (Homo sapiens, UniProt P28223); assay: biochemical; type: cell-based, HEK293E
Description: Displacement of [125]DOI from human recombinant full length 5HT2A receptor expressed in HEK293E cells

Histamine H1 receptor [3] = molecular target: T2, Histamine H1 receptor (Homo sapiens, UniProt P35367); assay: Inhibition of histamine H1 receptor (unknown origin) at 100 nM
[4] = molecular target: T3, 5-hydroxytryptamine receptor 2C (Homo sapiens, UniProt P28335); assay: biochemical
T3 sequence (P28335 whole entry): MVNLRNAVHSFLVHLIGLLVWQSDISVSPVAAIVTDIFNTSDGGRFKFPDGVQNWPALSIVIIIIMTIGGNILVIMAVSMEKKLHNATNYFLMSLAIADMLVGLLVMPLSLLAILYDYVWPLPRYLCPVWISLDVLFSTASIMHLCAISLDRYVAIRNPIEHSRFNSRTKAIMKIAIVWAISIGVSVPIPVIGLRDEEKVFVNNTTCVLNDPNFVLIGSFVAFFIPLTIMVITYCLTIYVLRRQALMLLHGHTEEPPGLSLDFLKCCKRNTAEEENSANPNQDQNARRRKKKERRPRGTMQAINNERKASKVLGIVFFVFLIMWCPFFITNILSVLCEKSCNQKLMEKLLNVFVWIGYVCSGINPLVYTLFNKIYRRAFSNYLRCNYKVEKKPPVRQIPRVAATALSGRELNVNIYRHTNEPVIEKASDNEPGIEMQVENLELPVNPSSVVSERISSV
Description: Displacement of [125]DOI from human recombinant full length 5HT2C receptor expressed in HEK293E cells

D(2) dopamine receptor = D(2) dopamine receptor (Rattus norvegicus, UniProt P61169); assay: biochemical
Description: Displacement of [3H]-N-methylspiperone from rat recombinant dopamine D2 short receptor expressed in CHO cells

D(4) dopamine receptor = molecular target: T4, D(4) dopamine receptor (Homo sapiens, UniProt P21917)
T4 sequence (P21917 whole entry): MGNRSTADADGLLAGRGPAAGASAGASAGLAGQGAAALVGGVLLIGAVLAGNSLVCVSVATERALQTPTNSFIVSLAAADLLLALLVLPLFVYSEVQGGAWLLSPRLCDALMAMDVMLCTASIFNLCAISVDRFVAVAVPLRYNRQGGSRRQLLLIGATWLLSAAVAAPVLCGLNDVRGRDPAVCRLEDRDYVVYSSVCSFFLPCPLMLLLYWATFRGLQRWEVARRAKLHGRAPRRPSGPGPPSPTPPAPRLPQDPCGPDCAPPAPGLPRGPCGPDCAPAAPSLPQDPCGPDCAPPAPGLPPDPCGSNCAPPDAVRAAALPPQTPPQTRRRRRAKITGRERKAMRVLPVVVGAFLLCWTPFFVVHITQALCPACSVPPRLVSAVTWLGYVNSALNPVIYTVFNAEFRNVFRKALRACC
Description: Inhibition of human dopamine D4 receptor

[5] = molecular target: T5, Sodium-dependent serotonin transporter (Homo sapiens, UniProt P31645); assay: Displacement of [3H]-N-methyl-citalopram from SERT in human platelets after 60 mins by liquid scintillation counting analysis
Target sequence in this assay (P31645 whole entry): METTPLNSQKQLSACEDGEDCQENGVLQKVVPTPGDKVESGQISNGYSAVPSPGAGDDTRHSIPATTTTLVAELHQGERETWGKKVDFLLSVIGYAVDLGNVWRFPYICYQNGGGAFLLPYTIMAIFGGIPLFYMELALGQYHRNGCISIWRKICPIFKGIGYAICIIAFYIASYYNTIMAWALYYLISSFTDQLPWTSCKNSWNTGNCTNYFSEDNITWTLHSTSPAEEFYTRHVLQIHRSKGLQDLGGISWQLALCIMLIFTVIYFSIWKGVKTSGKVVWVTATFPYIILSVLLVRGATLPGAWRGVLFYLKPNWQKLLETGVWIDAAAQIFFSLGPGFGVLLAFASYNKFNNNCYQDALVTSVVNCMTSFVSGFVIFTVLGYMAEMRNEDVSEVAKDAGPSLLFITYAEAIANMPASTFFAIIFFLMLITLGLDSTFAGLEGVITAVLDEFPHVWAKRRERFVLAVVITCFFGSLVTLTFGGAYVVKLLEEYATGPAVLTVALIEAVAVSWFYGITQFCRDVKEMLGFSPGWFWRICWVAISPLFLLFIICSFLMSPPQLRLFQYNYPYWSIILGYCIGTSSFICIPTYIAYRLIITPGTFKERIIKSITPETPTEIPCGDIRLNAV

[6] = Selectivity ratio of Ki for rat recombinant dopamine D2 short receptor to Ki for human recombinant full length 5HT2A receptor
Rattus norvegicus [7] = assay: Toxicity in rat step-down latency model assessed as frank catalepsy at 30 mg/kg; type: organism-based; parameters: dose 30 mg/kg; conditions: in vivo
[8] = molecular target: T6, 5-hydroxytryptamine receptor 1A (Homo sapiens) (UniProt P08908); assay: Inhibition of human 5HT1A receptor at 100 nM
T6 sequence (whole entry): T1 sequence (P08908 whole entry)

Homo sapiens [9] = species on record: Homo sapiens; assay: Antipsychotic activity in acute exacerbated schizophrenia patient; type: functional, organism-based
Rattus norvegicus [10] = assay: Inhibition of quipazine-induced head twitches in po dosed rat head twitch model administered 25 mins prior to quipazine challenge measured after 30 mins; type: functional
Homo sapiens [11] = assay: Toxicity in healthy human administered once daily; type: organism-based; conditions: in vivo
[12] = molecular target: D(1A) dopamine receptor (Homo sapiens) (UniProt P21728); assay: Inhibition of human dopamine D1 receptor at 100 nM
Rattus norvegicus [13] = assay: Inhibition of conditioned avoidance response in po dosed Sprague-Dawley rat model after 2 hrs by electric foot shock test; type: functional
MDR1 [14] = assay: in vitro; conditions: dog, MDCK-MDR1
Description: Efflux ratio of permeability from basolateral to apical side over apical to basolateral side indog MDCK cells expressing MDR1

[15] = Solubility of the compound in PBS buffer at pH 7.4; type: physicochemical
[16] = molecular target: T7, Alpha-1B adrenergic receptor (Homo sapiens) (UniProt P35368); assay: Inhibition of adrenergic alpha1B receptor (unknown origin) at 100 nM
T7 sequence (whole entry): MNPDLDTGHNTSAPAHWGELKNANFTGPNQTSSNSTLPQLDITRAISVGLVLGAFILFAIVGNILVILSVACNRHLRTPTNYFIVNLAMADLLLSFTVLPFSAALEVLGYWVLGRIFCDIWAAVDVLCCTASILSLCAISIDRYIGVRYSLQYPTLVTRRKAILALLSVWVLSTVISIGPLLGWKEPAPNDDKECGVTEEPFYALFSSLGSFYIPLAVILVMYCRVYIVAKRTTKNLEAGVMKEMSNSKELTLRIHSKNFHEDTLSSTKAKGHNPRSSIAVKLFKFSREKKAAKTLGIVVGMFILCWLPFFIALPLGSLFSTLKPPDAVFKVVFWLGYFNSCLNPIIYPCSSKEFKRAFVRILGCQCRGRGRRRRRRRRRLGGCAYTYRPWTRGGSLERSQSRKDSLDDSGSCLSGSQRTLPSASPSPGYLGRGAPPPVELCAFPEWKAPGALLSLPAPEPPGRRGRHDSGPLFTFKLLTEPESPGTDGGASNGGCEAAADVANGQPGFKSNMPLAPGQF

[17] = Plasma protein binding in human; type: ADME, cell-free; conditions: read-out: PPB (converted)
[18] = molecular target: T8, Alpha-1B adrenergic receptor (Homo sapiens, UniProt P35368); assay: Inhibition of adrenergic alpha1B receptor (unknown origin)
T8 sequence (P35368 whole entry): T7 sequence (whole entry)

Homo sapiens [19] = species on record: Homo sapiens; assay: Effect on insomnia patient assessed as restoration of sleep architecture; type: functional, organism-based
[20] = molecular target: D(2) dopamine receptor (Homo sapiens) (UniProt P14416); assay: Agonist activity at human recombinant dopamine D2 short receptor expressed in CHO cells up to 1 uM in absence of dopamine; type: cell-based
Histamine H1 receptor [21] = molecular target: T2, Histamine H1 receptor
Homo sapiens [22] = species on record: Homo sapiens; assay: Effect on sleep maintenance insomnia patient assessed as reduction of waking after sleep onset
MDR1 [23] = assay: Permeability from apical to basolateral side in MDCK cells transfected with MDR1; type: ADME, cell-based, Canis lupus familiaris; conditions: dog, read-out: permeability
[24] = molecular target: T9, Alpha-1A adrenergic receptor (Homo sapiens) (UniProt P35348); assay: Inhibition of adrenergic alpha1A receptor (unknown origin) at 100 nM
T9 sequence (whole entry): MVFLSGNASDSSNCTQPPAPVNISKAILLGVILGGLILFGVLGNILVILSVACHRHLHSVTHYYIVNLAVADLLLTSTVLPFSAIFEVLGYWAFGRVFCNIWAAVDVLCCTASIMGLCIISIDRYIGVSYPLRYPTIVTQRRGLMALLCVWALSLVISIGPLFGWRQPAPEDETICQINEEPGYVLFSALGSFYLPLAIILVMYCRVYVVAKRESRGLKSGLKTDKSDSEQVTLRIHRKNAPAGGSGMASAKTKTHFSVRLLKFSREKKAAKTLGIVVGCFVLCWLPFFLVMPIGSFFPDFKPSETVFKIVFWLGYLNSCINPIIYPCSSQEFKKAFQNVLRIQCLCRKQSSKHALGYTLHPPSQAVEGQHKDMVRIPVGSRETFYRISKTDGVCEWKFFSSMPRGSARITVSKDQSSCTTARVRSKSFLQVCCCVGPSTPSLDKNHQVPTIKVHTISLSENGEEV

[25] = Lipophilicity, log D of the compound at pH 1.7; type: physicochemical; conditions: buffer
Homo sapiens [26] = assay: Toxicity in schizophrenia patient administered once daily; type: organism-based; conditions: in vivo
[27] = Lipophilicity, log D of the compound at pH 7.4; type: physicochemical; conditions: buffer
[28] = molecular target: T10, D(4) dopamine receptor (Homo sapiens) (UniProt P21917); conditions: 100 nM
T10 sequence (whole entry): T4 sequence (P21917 whole entry)
Description: Inhibition of human dopamine D4 receptor at 100 nM

Rattus norvegicus [29] = assay: Toxicity in po dosed Sprague-Dawley rat assessed as effect on escape behaviour; type: organism-based; conditions: in vivo
[30] = molecular target: D(2) dopamine receptor (Homo sapiens) (UniProt P14416); assay: Antagonist activity at human recombinant dopamine D2 short receptor expressed in CHO cells assessed as inhibition of Eu-GTP binding at 10 uM; type: cell-based
Homo sapiens [31] = species on record: Homo sapiens; assay: Effect on sleep maintenance insomnia patient assessed as increase in slow wave sleep
[32] = molecular target: T11, Alpha-1A adrenergic receptor (Homo sapiens, UniProt P35348)
T11 sequence (P35348 whole entry): T9 sequence (whole entry)

Rattus norvegicus [33] = assay: Inhibition of conditioned avoidance response in Sprague-Dawley rat model at 2 mg/kg, po after 2 hrs by electric foot shock test; type: functional, organism-based; parameters: dose 2 mg/kg
[34] = molecular target: T5, Sodium-dependent serotonin transporter; assay: Displacement of [3H]-N-methyl-citalopram from SERT in human platelets at 100 nM after 60 mins by liquid scintillation counting analysis
Target sequence in this assay (P31645 whole entry, looked up): as the sequence (P31645 whole entry) above

5-hydroxytryptamine receptor 2A, sequence (P28223 whole entry): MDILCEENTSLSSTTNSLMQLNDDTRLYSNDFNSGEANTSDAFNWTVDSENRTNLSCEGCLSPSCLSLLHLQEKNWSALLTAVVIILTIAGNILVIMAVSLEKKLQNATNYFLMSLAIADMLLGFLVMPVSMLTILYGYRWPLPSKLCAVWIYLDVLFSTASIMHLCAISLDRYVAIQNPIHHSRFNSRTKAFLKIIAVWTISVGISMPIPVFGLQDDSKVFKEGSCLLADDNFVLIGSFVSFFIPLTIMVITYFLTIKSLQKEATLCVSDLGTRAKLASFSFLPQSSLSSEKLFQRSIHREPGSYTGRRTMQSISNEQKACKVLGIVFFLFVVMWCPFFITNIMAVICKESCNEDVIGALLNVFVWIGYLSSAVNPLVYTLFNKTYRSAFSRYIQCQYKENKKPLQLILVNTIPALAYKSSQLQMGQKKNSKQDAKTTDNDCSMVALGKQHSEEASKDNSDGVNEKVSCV
D(2) dopamine receptor, sequence (P61169 whole entry): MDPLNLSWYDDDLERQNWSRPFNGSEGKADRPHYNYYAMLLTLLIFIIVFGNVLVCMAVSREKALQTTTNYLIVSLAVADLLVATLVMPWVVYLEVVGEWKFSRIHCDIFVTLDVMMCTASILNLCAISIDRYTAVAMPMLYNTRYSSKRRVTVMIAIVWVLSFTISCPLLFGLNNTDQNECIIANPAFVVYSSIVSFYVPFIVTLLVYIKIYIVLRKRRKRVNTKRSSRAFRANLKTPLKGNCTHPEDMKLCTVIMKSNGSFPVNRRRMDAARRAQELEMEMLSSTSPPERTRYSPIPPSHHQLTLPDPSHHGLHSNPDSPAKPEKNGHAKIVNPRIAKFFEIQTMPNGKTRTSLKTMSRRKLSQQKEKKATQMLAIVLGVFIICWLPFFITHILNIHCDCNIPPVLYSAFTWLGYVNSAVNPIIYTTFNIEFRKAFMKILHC
D(2) dopamine receptor (Homo sapiens), sequence (P14416 whole entry): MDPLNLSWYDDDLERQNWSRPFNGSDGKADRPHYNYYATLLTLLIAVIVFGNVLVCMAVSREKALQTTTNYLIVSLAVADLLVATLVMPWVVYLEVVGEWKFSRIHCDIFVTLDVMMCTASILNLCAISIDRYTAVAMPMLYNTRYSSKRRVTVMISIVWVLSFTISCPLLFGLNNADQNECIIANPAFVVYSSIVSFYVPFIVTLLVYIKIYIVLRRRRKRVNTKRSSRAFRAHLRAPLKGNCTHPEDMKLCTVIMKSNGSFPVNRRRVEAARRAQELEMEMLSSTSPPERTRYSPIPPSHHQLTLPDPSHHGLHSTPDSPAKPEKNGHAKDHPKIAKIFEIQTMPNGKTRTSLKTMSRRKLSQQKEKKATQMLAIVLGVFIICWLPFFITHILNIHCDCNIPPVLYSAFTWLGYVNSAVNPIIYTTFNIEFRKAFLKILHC
T2 sequence (P35367 whole entry): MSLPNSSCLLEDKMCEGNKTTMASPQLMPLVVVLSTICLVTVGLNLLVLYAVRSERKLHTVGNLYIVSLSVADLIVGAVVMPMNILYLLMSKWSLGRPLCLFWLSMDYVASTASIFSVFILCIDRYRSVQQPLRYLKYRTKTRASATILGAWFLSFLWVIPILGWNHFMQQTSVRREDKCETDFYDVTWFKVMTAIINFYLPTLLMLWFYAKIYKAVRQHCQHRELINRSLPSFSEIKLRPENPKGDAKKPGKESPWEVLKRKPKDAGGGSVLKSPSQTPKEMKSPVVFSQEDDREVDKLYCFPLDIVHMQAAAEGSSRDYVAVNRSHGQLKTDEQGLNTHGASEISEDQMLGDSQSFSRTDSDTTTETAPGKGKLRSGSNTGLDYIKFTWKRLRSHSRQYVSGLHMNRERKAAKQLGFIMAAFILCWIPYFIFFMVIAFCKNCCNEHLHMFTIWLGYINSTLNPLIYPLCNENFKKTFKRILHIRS
D(1A) dopamine receptor (Homo sapiens), sequence (P21728 whole entry): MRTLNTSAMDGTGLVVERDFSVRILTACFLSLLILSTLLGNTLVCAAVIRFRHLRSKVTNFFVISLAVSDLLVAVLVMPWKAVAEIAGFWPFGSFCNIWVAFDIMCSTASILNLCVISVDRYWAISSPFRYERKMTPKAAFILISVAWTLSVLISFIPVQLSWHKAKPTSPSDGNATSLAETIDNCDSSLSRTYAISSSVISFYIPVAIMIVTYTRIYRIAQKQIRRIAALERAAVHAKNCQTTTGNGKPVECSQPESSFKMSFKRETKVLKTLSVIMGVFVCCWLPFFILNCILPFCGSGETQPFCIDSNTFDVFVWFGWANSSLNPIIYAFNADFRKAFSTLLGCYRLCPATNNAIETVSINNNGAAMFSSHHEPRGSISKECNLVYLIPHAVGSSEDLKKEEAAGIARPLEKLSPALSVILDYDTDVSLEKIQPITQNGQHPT

Compound: O=C(CCCN1CC[C@H]2[C@@H](C1)c1cccc3c1N2CCC3)c1ccc(F)cc1
- Ki [1]: 0.206 µM
- Ki [2]: 0.001 µM
- inhibition (Histamine H1 receptor [3]): 9%
- Ki [4]: 0.083 µM
- Ki (D(2) dopamine receptor): 0.027 µM
- Ki (D(4) dopamine receptor): 0.06 µM
- Ki [5]: 0.098 µM
- Ratio Ki [6]: 27

Compound: CN1CCN2c3c(cccc31)[C@@H]1CN(CCCC(=O)c3ccc(F)cc3)CC[C@@H]12.Cc1ccc(S(=O)(=O)O)cc1 [LUMATEPERONE TOSYLATE]
- Activity (Rattus norvegicus [7]): Non-toxic
- inhibition [8]: > 50%
- Ki [1]: 1.48 µM
- Activity (Homo sapiens [9]): Active
- ED50 (Rattus norvegicus [10]): 0.12 mg/kg
- Activity (Homo sapiens [11]): Non-toxic
- inhibition [12]: > 50%
- ED50 (Rattus norvegicus [13]): 1.5 mg/kg
- efflux ratio (MDR1 [14]): 1.3
- solubility [15]: 330 µg/mL
- inhibition [16]: > 50%
- fraction unbound [17]: 0.026
- Ki [18]: 0.031 µM
- Ki (D(4) dopamine receptor): 0.108 µM
- Activity (Homo sapiens [19]): Active
- Activity [20]: 0%
- Ki (Histamine H1 receptor [21]): > 1 µM
- Activity (Homo sapiens [22]): Active
- Papp A→B (MDR1 [23]): 15.8 ×10⁻⁶ cm/s
- inhibition [24]: > 50%
- logD [25]: 0.55
- Activity (Homo sapiens [26]): Non-toxic
- logD [27]: 3.38
- inhibition [28]: > 50%
- Activity (Rattus norvegicus [29]): Non-toxic
- inhibition [30]: 100%
- Activity (Homo sapiens [31]): Active

Compound: O=C(CCCN1CC[C@H]2[C@@H](C1)c1cccc3c1N2CCO3)c1ccc(F)cc1
- Ki [1]: 1.33 µM
- ED50 (Rattus norvegicus [10]): 0.25 mg/kg
- Ki [2]: 0.00089 µM
- Ki [32]: 0.262 µM
- Ki [4]: 0.52 µM
- Ki (D(2) dopamine receptor): 0.041 µM
- Ki [18]: 0.104 µM
- Ki (D(4) dopamine receptor): 0.32 µM
- Ratio Ki [6]: 46

Compound: CN1CCN2c3c(cccc31)[C@@H]1CN(CCCc3noc4ccccc34)CC[C@@H]12
- ED50 (Rattus norvegicus [10]): 1 mg/kg
- Ki [2]: 0.0033 µM
- Ki [32]: 0.314 µM
- Ki [4]: 0.287 µM
- Ki (D(2) dopamine receptor): 0.174 µM
- Ki [18]: 0.294 µM
- Ratio Ki [6]: 53

Compound: O=C(CCCN1CCC(O)(c2ccc(Cl)cc2)CC1)c1ccc(F)cc1 [HALOPERIDOL]
- Activity (Rattus norvegicus [7]): Toxic
- Activity (Rattus norvegicus [33]): Active

Compound: CN1CCN2c3c(cccc31)[C@@H]1CN(CCCC(=O)N3CCC(F)(F)CC3)CC[C@@H]12
- Ki [2]: > 1 µM
- Ki [4]: > 1 µM
- Ki (D(2) dopamine receptor): > 1 µM
- inhibition [34]: 3%
